Measurements reported in the NIST ThermoML archive (doi:10.1016/j.jct.2017.12.015).
Numbers after ± are expanded uncertainties. Blank lines part the entries; values can stand above or below the compound they belong to.

What was measured:
[1] = refractive index (Na D-line) (dimensionless); settings: 298 K; 101.33 kPa; Liquid; Standard Abbe refractometry
[2] = Liquid, Ebulliometric method (Recirculating still)

Structure (SMILES): CC(C)=O [acetone]
refractive index [1]: 1.3555 ± 0.001

Structure (SMILES): CC(=O)O [acetic acid]
refractive index [1]: 1.37203 ± 0.001

Structure (SMILES): CC1CCCO1 (configuration not stated) [2-methyltetrahydrofuran]
vapor or sublimation pressure ([2]; 323.22 K): 36.4 ± 0.3 kPa
vapor or sublimation pressure ([2]; 327.67 K): 43 ± 0.3 kPa
vapor or sublimation pressure ([2]; 337.97 K): 62.1 ± 0.3 kPa
vapor or sublimation pressure ([2]; 341.54 K): 70.1 ± 0.3 kPa
vapor or sublimation pressure ([2]; 347.21 K): 84.4 ± 0.3 kPa
vapor or sublimation pressure ([2]; 350.53 K): 93.8 ± 0.4 kPa
vapor or sublimation pressure ([2]; 352.84 K): 100.8 ± 0.4 kPa
refractive index [1]: 1.40299 ± 0.001

Structure (SMILES): O=Cc1ccco1 [2-furaldehyde]
refractive index [1]: 1.52364 ± 0.001

Other lines, results leading:

vapor or sublimation pressure ([2]; 340.92 K): 29.4 ± 0.2 kPa
vapor or sublimation pressure ([2]; 345.38 K): 34.6 ± 0.2 kPa
vapor or sublimation pressure ([2]; 350.4 K): 41.4 ± 0.3 kPa
vapor or sublimation pressure ([2]; 356.3 K): 50.7 ± 0.3 kPa
vapor or sublimation pressure ([2]; 363.57 K): 64.4 ± 0.3 kPa
vapor or sublimation pressure ([2]; 366.69 K): 71.1 ± 0.3 kPa
vapor or sublimation pressure ([2]; 369.78 K): 78.3 ± 0.3 kPa
vapor or sublimation pressure ([2]; 374.39 K): 90 ± 0.3 kPa
vapor or sublimation pressure ([2]; 377.89 K): 99.8 ± 0.3 kPa
refractive index [1]: 1.41833 ± 0.001
Structure (SMILES): COC1CCCC1 [methoxycyclopentane]

refractive index [1]: 1.3325 ± 0.001
Structure (SMILES): O [water]
